Key:
Assay type in all cases: cell-based
SMARCA2 [1] = target: T1, SMARCA2 (Homo sapiens, UniProt P51531); test: SMARCA2 Western blot MV4-11 degradation; parameters: SMARCA2/SMARCA4 protein degradation selectivity in MV4-11 cells; endogenous in cells; host or cells: MV4-11; settings: MV4-11 cells, 24 h; for DC50: read-out: SMARCA2 MSD MV411 degradation 24 h: Mean external-Abs DC50; for Dmax: read-out: SMARCA2 MSD MV411 degradation 24 h: average Dmax %
SMARCA2 [2] = target: T1, SMARCA2; test: MSD SMARCA2 degradation in A549 cell line; settings: A549 cells, 24 h; for DC50: read-out: SMARCA2 MSD A549 degradation 24 h: Average external-Abs DC50
Method: Cells were seeded into 96-well plates (A549 cells: 2×10^4 cells/well/100 ul media) and incubated overnight. The next day, 200 nL compound were added into the intermediate plate with Echo (Labcyte 550) from source plate containing a 3-fold serial dilution from top concentration of 1 mM. The culture medium was changed with 80 ul of fresh medium and 80 uL of 2× compound solution was added into the well to make a final concentration of 1000 nM, 333.3 nM, 111.1 nM, 37.04 nM, 12.35 nM, 4.115 nM, 1.372 nM, 0.457 nM, 0.152 nM and 0 nM (DMSO). The wells were mixed and then incubated for 24 hours. The media was aspirated from the cultures and 60 ul pre-chilled PIPA lysis buffer (Boston BioProducts BP-115D) with protease/phosphatase inhibitor (Roche 05892791001/Roche 04906837001) was added into the well to lyze the cells for 20 minutes at 4° C. The MSD plate (L15XA) was coated with 40 uL cell lysate and incubated at 4° C. overnight. The next day, the plate was washed three times with TBST (CST #9997S), 150 ul/well. The MSD plates was blocked with 150 ul blocking buffer per well and shaked for 1 hr at RT, 600 rpm. The blocking buffer was 3% Blocker A (MSD, R93BA-4) in TBST. The MSD plate was washed three times with 150 uL/well of TBST and 25 ul/well of detection antibody (Rabbit anti-SMARCA2/BRM antibody, 100 μg/mL, ab223735) was added at final concentration of 1 ug/mL diluted in 1% Blocking buffer and shaken for 1 hour at RT, 600 rpm. The MSD plate was washed three times with 150 ul/well of TBST and 25 ul/well of SULFO-TAG anti-rabbit antibody (MSD, R32AB-1) was added at final concentration of 1 ug/ml diluted in 1% Blocking buffer and shaken for 1 hour at RT, 600 rpm. The MSD plate was washed three times with 150 uL/well of TBST and 150 ul/well of 2×MSD reading buffer diluted from 4× (MSD, R92TC-2) with water was added. Lastly, the MSD instrument was read.
(§1) The letter codes for SMARCA2 degradation potency (DC50) include: A (<100 nM), B (100-500 nM), C (501-1000 nM), and D (>1000 nM). The letter codes for the percentage of SMARCA degradation after 24 hours (Dmax %) include: A (>90% degradation), B (>70-90% degradation), C (50-70% degradation), and D (<50% degradation).

SMARCA4 = target: T2, SMARCA4 (Homo sapiens, UniProt P51532); test: SMARCA4 Western blot MV4-11 degradation; settings: MV4-11 cells, 24 h; for DC50: read-out: SMARCA4 MSD MV411 degradation 24 h: Mean external-Abs DC50; for Dmax: read-out: SMARCA4 MSD MV411 degradation 24 h: average Dmax %
T2 construct: SMARCA2/SMARCA4 protein degradation selectivity in MV4-11 cells; endogenous in cells; host or cells: MV4-11
Method: Cells were seeded into 6-well plates (MV4-11: 4×10^6 cells/well/1 ml) and 1 ml of 2× compound solution was added into the well to make the final concentration and the plates were mixed well and incubated for 24 hours (No cytotoxicity was observed). The cell were collected with media and spun at 3000 rpm for 5 minutes. The supernatant was aspirated and the well and the cells were washed with cold PBS once and combined for centrifugation again; the supernatant aspirated again. 200 uL pre-chilled RIPA lysis buffer (Boston BioProducts BP-115D) with protease/phosphatase inhibitor (Roche 05892791001/Roche 04906837001) was directly added into the tube to lyze the cells for 20 minutes on ice. The cell lysate were collected into EP tubes and spun at 13000 rpm for 20 minutes and 72 uL supernatant was transferred to a fresh EP tube containing 18 uL of 5× loading buffer (Beyotime Bio P0015) to make the loading samples. The samples were heated to 100° C. for 10 minutes and cooled to RT and microcentrifuged. 20 uL of samples were loaded onto SDS-PAGE gel (Novex, WG1402BOX) and the gel was run at 80 V for 20 minutes and 120 V for 1.5 hours. The samples were electrotransfer to a NC membrane using wet-transfer method with 250 mA for 2.5 hours. The membrane was blocked with LICOR blocking buffer (LICOR, 927-50000) for 1 hour. The membrane was washed three times with TBST(CST #9997S), 5 minutes each. Incubation was performed with primary antibody prepared in blocking buffer with 0.1% Tween-20 (Solarbio, P8220) at 4° C. overnight (Anti-SMARCA2/BRM antibody (ab15597) 1:500; Anti-BRG1 antibody [EPR3912] (ab108318) 1:1000; Rabbit anti-Baf180 antibody [EPR15860] (Abeam,ab 196022) 1:1000; mouse anti-beta-Actin (8H10D10) (CST #3700) 1:10000). The membrane was washed three times with TBST, 5 minutes each. Incubation with secondary antibody was performed for 1 hour at RT (anti-rabbit IgG (Licor, 926-32211) 1:5000; anti-mouse IgG (LI-COR, 926-68070) 1:5000). The membrane was washed three times with 5 minutes each and lastly the LiCOR was read.
as §1, with “SMARCA2/4” for “SMARCA2”

T1 sequence (P51531 whole entry): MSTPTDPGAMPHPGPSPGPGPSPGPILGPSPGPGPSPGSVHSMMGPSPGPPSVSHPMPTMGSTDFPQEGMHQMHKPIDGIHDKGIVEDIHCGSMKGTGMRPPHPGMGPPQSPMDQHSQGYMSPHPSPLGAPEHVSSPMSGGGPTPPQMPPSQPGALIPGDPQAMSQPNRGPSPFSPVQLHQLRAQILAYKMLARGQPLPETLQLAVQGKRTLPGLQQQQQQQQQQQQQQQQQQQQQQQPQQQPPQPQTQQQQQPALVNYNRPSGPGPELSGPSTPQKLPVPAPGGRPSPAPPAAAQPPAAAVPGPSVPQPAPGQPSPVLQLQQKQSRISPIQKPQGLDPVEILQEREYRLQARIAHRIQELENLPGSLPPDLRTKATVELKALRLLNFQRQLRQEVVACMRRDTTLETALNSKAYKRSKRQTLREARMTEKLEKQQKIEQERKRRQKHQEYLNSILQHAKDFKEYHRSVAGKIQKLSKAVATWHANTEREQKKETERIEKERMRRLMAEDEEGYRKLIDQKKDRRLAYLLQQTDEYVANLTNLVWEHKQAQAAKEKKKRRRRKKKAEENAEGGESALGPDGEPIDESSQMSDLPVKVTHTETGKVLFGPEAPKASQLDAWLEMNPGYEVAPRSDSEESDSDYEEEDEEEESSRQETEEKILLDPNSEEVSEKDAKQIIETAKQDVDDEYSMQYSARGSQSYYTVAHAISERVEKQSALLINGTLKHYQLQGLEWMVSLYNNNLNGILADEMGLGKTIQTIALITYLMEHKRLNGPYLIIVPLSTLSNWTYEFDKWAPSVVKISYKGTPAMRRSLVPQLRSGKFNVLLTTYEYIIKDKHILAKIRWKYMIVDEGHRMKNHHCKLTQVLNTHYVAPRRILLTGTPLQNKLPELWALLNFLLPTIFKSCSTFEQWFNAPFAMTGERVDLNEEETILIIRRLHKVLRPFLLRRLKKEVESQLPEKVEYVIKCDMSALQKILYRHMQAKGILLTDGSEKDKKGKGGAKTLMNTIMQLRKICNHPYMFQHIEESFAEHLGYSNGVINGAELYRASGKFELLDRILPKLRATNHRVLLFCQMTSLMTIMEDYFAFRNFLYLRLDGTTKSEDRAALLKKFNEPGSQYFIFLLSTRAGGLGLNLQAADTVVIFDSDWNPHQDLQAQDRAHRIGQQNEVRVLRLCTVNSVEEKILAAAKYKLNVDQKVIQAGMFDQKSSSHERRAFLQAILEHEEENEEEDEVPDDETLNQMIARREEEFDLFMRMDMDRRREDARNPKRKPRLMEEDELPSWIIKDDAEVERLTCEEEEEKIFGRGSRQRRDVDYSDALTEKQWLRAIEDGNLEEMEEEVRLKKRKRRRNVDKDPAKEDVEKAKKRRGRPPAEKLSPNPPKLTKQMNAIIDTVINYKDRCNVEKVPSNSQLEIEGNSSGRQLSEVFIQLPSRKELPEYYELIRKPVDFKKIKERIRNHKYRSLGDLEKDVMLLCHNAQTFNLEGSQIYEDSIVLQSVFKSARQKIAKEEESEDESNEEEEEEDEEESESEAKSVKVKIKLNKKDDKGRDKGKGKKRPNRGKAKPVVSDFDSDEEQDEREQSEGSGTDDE
T2 sequence (P51532 whole entry): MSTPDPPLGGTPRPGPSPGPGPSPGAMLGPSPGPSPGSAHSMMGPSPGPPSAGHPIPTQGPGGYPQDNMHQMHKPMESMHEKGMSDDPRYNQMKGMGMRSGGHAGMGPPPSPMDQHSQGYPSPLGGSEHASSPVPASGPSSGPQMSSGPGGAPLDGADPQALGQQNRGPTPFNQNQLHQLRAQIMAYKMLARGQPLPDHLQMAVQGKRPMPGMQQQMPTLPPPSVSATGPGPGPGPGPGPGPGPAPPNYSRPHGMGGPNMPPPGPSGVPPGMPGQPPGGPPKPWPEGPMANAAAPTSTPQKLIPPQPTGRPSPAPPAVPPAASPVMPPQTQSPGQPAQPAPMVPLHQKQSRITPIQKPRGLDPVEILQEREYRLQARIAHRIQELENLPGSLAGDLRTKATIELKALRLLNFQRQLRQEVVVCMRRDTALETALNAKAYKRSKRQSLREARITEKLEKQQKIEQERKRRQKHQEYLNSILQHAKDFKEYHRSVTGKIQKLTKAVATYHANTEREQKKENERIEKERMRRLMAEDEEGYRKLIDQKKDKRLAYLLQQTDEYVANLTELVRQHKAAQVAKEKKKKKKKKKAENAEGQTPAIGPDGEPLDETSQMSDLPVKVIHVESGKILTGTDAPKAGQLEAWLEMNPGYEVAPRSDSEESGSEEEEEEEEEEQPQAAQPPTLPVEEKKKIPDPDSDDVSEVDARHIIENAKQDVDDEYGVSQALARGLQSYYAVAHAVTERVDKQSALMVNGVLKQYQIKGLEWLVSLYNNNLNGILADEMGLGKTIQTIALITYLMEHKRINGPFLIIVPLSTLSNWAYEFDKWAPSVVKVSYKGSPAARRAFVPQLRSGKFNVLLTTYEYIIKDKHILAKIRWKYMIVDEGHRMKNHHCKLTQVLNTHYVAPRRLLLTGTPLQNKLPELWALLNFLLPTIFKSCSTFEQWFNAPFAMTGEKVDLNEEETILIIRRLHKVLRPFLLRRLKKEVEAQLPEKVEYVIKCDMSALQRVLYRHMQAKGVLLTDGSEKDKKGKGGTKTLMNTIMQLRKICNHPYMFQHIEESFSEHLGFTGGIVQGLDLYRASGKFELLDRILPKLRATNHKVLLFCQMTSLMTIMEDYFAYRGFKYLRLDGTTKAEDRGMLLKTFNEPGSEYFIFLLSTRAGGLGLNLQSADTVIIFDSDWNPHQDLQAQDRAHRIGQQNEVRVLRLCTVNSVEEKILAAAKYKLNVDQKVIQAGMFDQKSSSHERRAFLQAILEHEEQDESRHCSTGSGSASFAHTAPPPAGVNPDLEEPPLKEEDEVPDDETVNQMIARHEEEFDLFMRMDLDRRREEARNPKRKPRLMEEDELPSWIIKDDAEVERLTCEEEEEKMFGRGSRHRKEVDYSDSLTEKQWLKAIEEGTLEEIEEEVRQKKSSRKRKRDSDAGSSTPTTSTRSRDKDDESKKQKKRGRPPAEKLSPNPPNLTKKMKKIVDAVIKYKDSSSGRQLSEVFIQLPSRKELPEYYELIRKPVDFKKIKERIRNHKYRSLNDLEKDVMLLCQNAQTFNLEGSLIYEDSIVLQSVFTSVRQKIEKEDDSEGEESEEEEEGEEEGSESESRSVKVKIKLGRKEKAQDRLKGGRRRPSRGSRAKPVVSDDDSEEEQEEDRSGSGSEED

Row | SMILES | DC50 (SMARCA2 [1]) [nM] | Dmax (SMARCA2 [1]) [%] | Dmax (SMARCA2 [2]) [%] | DC50 (SMARCA2 [2]) [nM] | DC50 (SMARCA4) [nM] | Dmax (SMARCA4) [%]
1 | Cc1ncsc1-c1ccc(CNC(=O)[C@@H]2C[C@@H](O)CN2C(=O)[C@@H](NC(=O)C2CC3(C2)CC(N2CCC(c4ccnc(N5CCc6[nH]c7nnc(-c8ccccc8O)cc7c6[C@H]5C)n4)CC2)C3)C(C)(C)C)cc1 (stereo partly drawn) [I-13, (2S,4R)-4-hydroxy-1-((S)-2-(6-(4-(2-((R)-3-(2-hydroxyphenyl)-5-methyl-7,8-dihydro-5H-pyrido[3′,4′:4,5]pyrrolo[2,3-c]pyridazin-6(9H)-yl)pyrimidin-4-yl)piperidin-1-yl)spiro[3.3]heptane-2-carboxamido)-3,3-dimethylbutanoyl)-N-(4-(4-methylthiazol-5-yl)benzyl)pyrrolidine-2-carboxamide] | 501 to 1000 | 50 to 70 | < 50 | > 1000 | > 1000 | 50 to 70
2 | Cc1ncsc1-c1ccc(CNC(=O)[C@@H]2C[C@@H](O)CN2C(=O)[C@@H](NC(=O)C2CC3(C2)CC(N2CCC(c4cnc(N5CCc6[nH]c7nnc(-c8ccccc8O)cc7c6[C@@H]5C)nc4)CC2)C3)C(C)(C)C)cc1 (stereo partly drawn) [I-37, (2S,4R)-4-hydroxy-1-((S)-2-(6-(4-(2-((S)-3-(2-hydroxyphenyl)-5-methyl-7,8-dihydro-5H-pyrido[3′,4′:4,5]pyrrolo[2,3-c]pyridazin-6(9H)-yl)pyrimidin-5-yl)piperidin-1-yl)spiro[3.3]heptane-2-carboxamido)-3,3-dimethylbutanoyl)-N-(4-(4-methylthiazol-5-yl)benzyl)pyrrolidine-2-carboxamide] | 100 to 500 | 50 to 70 | 70 to 90 | 100 to 500 |  | 
3 | Cc1ncsc1-c1ccc(CNC(=O)[C@@H]2C[C@@H](O)CN2C(=O)[C@@H](NC(=O)C2CC3(C2)CC(N2CCC(c4cnc(N5CCc6[nH]c7nnc(-c8ccccc8O)cc7c6[C@H]5C)nc4)CC2)C3)C(C)(C)C)cc1 (stereo partly drawn) [I-38, (2S,4R)-4-hydroxy-1-((S)-2-(6-(4-(2-((R)-3-(2-hydroxyphenyl)-5-methyl-7,8-dihydro-5H-pyrido[3′,4′:4,5]pyrrolo[2,3-c]pyridazin-6(9H)-yl)pyrimidin-5-yl)piperidin-1-yl)spiro[3.3]heptane-2-carboxamido)-3,3-dimethylbutanoyl)-N-(4-(4-methylthiazol-5-yl)benzyl)pyrrolidine-2-carboxamide] | < 100 | 70 to 90 | > 90 | < 100 | > 1000 | < 50

The next lines start with the values.

Row | DC50 (SMARCA2 [1]) [nM] | Dmax (SMARCA2 [1]) [%] | Dmax (SMARCA2 [2]) [%] | DC50 (SMARCA2 [2]) [nM] | DC50 (SMARCA4) [nM] | Dmax (SMARCA4) [%] | SMILES
4 | < 100 | 70 to 90 | 70 to 90 | 100 to 500 | > 1000 | < 50 | Cc1ncsc1-c1ccc(CNC(=O)[C@@H]2C[C@@H](O)CN2C(=O)[C@@H](NC(=O)[C@H]2CC3(C2)C[C@H](N2CCC(c4cnc(N5CCc6[nH]c7nnc(-c8ccccc8O)cc7c6[C@H]5C)nc4)CC2)C3)C(C)(C)C)cc1 (single isomer, unassigned) [I-40]
5 | < 100 |  |  | 100 to 500 | > 1000 |  | Cc1ncsc1-c1ccc(CNC(=O)[C@@H]2C[C@@H](O)CN2C(=O)[C@@H](NC(=O)[C@H]2CC3(C2)C[C@H](N2CCC(c4cnc(N5CCc6[nH]c7nnc(-c8ccccc8O)cc7c6[C@H]5C)nc4)CC2)C3)C(C)(C)C)cc1 (single isomer, unassigned) [I-41]
6 | < 100 | 70 to 90 | 70 to 90 | 100 to 500 | > 1000 | 50 to 70 | Cc1ncsc1-c1ccc(CNC(=O)[C@@H]2C[C@@H](O)CN2C(=O)[C@@H](NC(=O)C2CC3(C2)CC(N2CCC(c4ccnc(N5CCc6[nH]c7nnc(-c8ccccc8O)cc7c6[C@@H]5C)n4)CC2)C3)C(C)(C)C)cc1 (stereo partly drawn) [I-14, (2S,4R)-4-hydroxy-1-((S)-2-(6-(4-(2-((S)-3-(2-hydroxyphenyl)-5-methyl-7,8-dihydro-5H-pyrido[3′,4′:4,5]pyrrolo[2,3-c]pyridazin-6(9H)-yl)pyrimidin-4-yl)piperidin-1-yl)spiro[3.3]heptane-2-carboxamido)-3,3-dimethylbutanoyl)-N-(4-(4-methylthiazol-5-yl)benzyl)pyrrolidine-2-carboxamide]
